Data published in patent US20260372303A1, “5-Fluoro-4-Imino-3-Methyl-1-Tosyl-3, 4-Dihydropyrimidin-2(1H) -One for Fungicide-Resistant Fungus” (priority 2022, published 2026).

Experiments:
[1] = tested on: Zymoseptoria tritici strain Zt 19-52; test: In planta preventive efficacy on wheat cv. Alixan against Zymoseptoria tritici strain Zt 19-52; format: in vivo; details: % of length of 2nd leaf blade, preventive 24 h
[2] = tested on: Zymoseptoria tritici strain Zt 99; test: In planta preventive efficacy on wheat cv. Alixan against Zymoseptoria tritici strain Zt 99; format: in vivo; details: for Disease Severity Intensity: % of length of 2nd leaf blade, preventive 24 h; for AUDPC: control 1352.9
Outline: (§1)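 BBCH 12 wheat plants sprayed preventively, inoculated 24 h later with calibrated pycnospore suspension; 3 pots of 6 plants per condition, 20/17 °C, 16 h light. Necrosis length on second leaf scored at 15, 21 and 28 dpi; efficacy from trapezoidal AUDPC as % of untreated control.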

Z. tritici strains = test: In planta susceptibility of all Z. tritici strains pathogenic on wheat cv. ALIXAN (conclusions); format: in vivo, Zymoseptoria tritici
Method: Winter wheat plants cv. Alixan (Limagrain) at the BBCH 12 growth stage were treated preventively with sterile distilled water (control), ADF-16, penthiopyrad, metconazole or tebuconazole at the rates described in Table 2 with a hand sprayer at 2 bars.
After treatment, wheat plants were left to dry at room temperature for 1 hour and then placed in a climatic chamber: temperature of 24 °C day/18 °C night-photoperiod of 16 h light/8 h dark and a relative humidity of 65%.
Untreated or treated whole wheat plants were inoculated 24-hours post-treatment with a calibrated pycnospore suspension of Z. tritici strains Zt StA, Zt 61, Zt 99, Zt 20, Zt 19-52, and Zt 38-02. Three replicates (pots) of 6 wheat plants each were used for each condition tested. […]
Disease assessments were carried out at 15 days post inoculation (dpi), 21 dpi and 28 dpi by measuring the length of the necrosis on the second leaf blade. The intensity of infection was then determined as a percentage of the total length of 2nd leaf blade.
The fungicide efficacies were determined from the Area Under the Disease Progress Curve (AUDPC) values and expressed as a percentage of the untreated control.
The AUDPC is a quantitative measure of disease intensity over time. […] The AUDPC is determined with the following formula by adding all of the trapezoids: […]

[3] = tested on: Zymoseptoria tritici strain Zt 20; test: In planta preventive efficacy on wheat cv. Alixan against Zymoseptoria tritici strain Zt 20; format: in vivo; details: % of length of 2nd leaf blade, preventive 24 h
Outline: as §1

[4] = tested on: Zymoseptoria tritici strain Zt 38-02; test: In planta preventive efficacy on wheat cv. Alixan against Zymoseptoria tritici strain Zt 38-02; format: in vivo; details: for Disease Severity Intensity: % of length of 2nd leaf blade, preventive 24 h; for AUDPC: control 1261.4
Outline: as §1

[5] = tested on: Zymoseptoria tritici strain Zt 61; test: In planta preventive efficacy on wheat cv. Alixan against Zymoseptoria tritici strain Zt 61; format: in vivo; details: for Disease Severity Intensity: % of length of 2nd leaf blade, preventive 24 h; for AUDPC: control 1194.9
Outline: as §1

[6] = tested on: Zymoseptoria tritici strain Zt StA; test: In planta preventive efficacy on wheat cv. Alixan against Zymoseptoria tritici strain Zt StA (control strain, sensitive); format: in vivo; details: for Disease Severity Intensity: % of length of 2nd leaf blade, preventive 24 h; for AUDPC: control 781.6
Outline: as §1

[7] = rate N (g a.i./ha): ADF-16 100, penthiopyrad 200, metconazole 90, tebuconazole 250
[8] = rate N/2.5 (g a.i./ha): ADF-16 40, penthiopyrad 80, metconazole 36, tebuconazole 100
[9] = 15 dpi, rate N (g a.i./ha): ADF-16 100, penthiopyrad 200, metconazole 90, tebuconazole 250, control also no disease
[10] = 15 dpi, rate N/2.5 (g a.i./ha): ADF-16 40, penthiopyrad 80, metconazole 36, tebuconazole 100, control also no disease

**Q.** For Cc1ccc(S(=O)(=O)n2cc(F)c(=N)n(C)c2=O)cc1 [ADF-16, 5-fluoro-4-imino-3-methyl-1-tosyl-3,4-dihydropyrimidin-2 (1H)-one], which “Disease Severity Intensity” value ([1]; 15 dpi, rate N (g a.i./ha): ADF-16 100, penthiopyrad 200, metconazole 90, tebuconazole 250, control 22.0) is on record?
**A.** 0.0 +/− 0.0b %

**Q.** What about the “Disease Severity Intensity” value ([1]; 15 dpi, rate N/2.5 (g a.i./ha): ADF-16 40, penthiopyrad 80, metconazole 36, tebuconazole 100, control 22.0) of the same compound?
**A.** 0.0 +/− 0.0b %

**Q.** And the “Disease Severity Intensity” value ([1]; 21 dpi, rate N (g a.i./ha): ADF-16 100, penthiopyrad 200, metconazole 90, tebuconazole 250, control 81.7)?
**A.** 0.4 +/− 0.4c %

**Q.** And the “Disease Severity Intensity” value ([1]; 21 dpi, rate N/2.5 (g a.i./ha): ADF-16 40, penthiopyrad 80, metconazole 36, tebuconazole 100, control 81.7)?
**A.** 0.3 +/− 0.2c %

**Q.** What about the “Disease Severity Intensity” value ([1]; 28 dpi, rate N (g a.i./ha): ADF-16 100, penthiopyrad 200, metconazole 90, tebuconazole 250, control 91.0) of the same compound?
**A.** 2.0 +/− 1.4ef %

**Q.** And the “Disease Severity Intensity” value ([1]; 28 dpi, rate N/2.5 (g a.i./ha): ADF-16 40, penthiopyrad 80, metconazole 36, tebuconazole 100, control 91.0)?
**A.** 4.4 +/− 1.7de %

**Q.** What about the “Disease Severity Intensity” value ([2]; 15 dpi, rate N (g a.i./ha): ADF-16 100, penthiopyrad 200, metconazole 90, tebuconazole 250, control 47.9) of the same compound?
**A.** 0.0 +/− 0.0d %

**Q.** And the “Disease Severity Intensity” value ([2]; 15 dpi, rate N/2.5 (g a.i./ha): ADF-16 40, penthiopyrad 80, metconazole 36, tebuconazole 100, control 47.9)?
**A.** 0.0 +/− 0.0d %

**Q.** And the “Disease Severity Intensity” value ([2]; 21 dpi, rate N (g a.i./ha): ADF-16 100, penthiopyrad 200, metconazole 90, tebuconazole 250, control 81.0)?
**A.** 0.1 +/− 0.1f %

**Q.** What about the “Disease Severity Intensity” value ([2]; 21 dpi, rate N/2.5 (g a.i./ha): ADF-16 40, penthiopyrad 80, metconazole 36, tebuconazole 100, control 81.0) of the same compound?
**A.** 0.0 +/− 0.0f %

**Q.** What about the “Disease Severity Intensity” value ([2]; 28 dpi, rate N (g a.i./ha): ADF-16 100, penthiopyrad 200, metconazole 90, tebuconazole 250, control 92.2) of the same compound?
**A.** 0.1 +/− 0.1e %

**Q.** And the “Disease Severity Intensity” value ([2]; 28 dpi, rate N/2.5 (g a.i./ha): ADF-16 40, penthiopyrad 80, metconazole 36, tebuconazole 100, control 92.2)?
**A.** 1.7 +/− 0.8e %

**Q.** And the “Efficacy (from AUDPC, percentage of the untreated control)” value [2, 7]?
**A.** 99.9%

**Q.** And the AUDPC [2, 7]?
**A.** 1.2 ± 0.3 g

**Q.** What about the “Efficacy (from AUDPC, percentage of the untreated control)” value [2, 8] of the same compound?
**A.** 99.6%

**Q.** And the AUDPC [2, 8]?
**A.** 5.9 ± 0.4 g

**Q.** What about the “control in planta of Z. tritici strains” value (Z. tritici strains; 8 strains pathogenic on wheat cv. ALIXAN, 2 doses tested (40 and 100 g a.i./ha)) of the same compound?
**A.** perfectly controlled

**Q.** What about the effectiveness (Z. tritici strains; full dose of 100 g a.i./ha, across strains) of the same compound?
**A.** more than 99%

**Q.** What about the “Disease Severity Intensity” value [3, 9] of the same compound?
**A.** No disease

**Q.** And the “Disease Severity Intensity” value [3, 10]?
**A.** No disease

**Q.** And the “Disease Severity Intensity” value ([3]; 21 dpi, rate N (g a.i./ha): ADF-16 100, penthiopyrad 200, metconazole 90, tebuconazole 250, control 77.2)?
**A.** 0.0 +/− 0.0e %

**Q.** What about the “Disease Severity Intensity” value ([3]; 21 dpi, rate N/2.5 (g a.i./ha): ADF-16 40, penthiopyrad 80, metconazole 36, tebuconazole 100, control 77.2) of the same compound?
**A.** 0.0 +/− 0.0e %

**Q.** What about the “Disease Severity Intensity” value ([3]; 28 dpi, rate N (g a.i./ha): ADF-16 100, penthiopyrad 200, metconazole 90, tebuconazole 250, control 95.5) of the same compound?
**A.** 0.0 +/− 0.0g %

**Q.** What about the “Disease Severity Intensity” value ([3]; 28 dpi, rate N/2.5 (g a.i./ha): ADF-16 40, penthiopyrad 80, metconazole 36, tebuconazole 100, control 95.5) of the same compound?
**A.** 7.3 +/− 1.9f %

**Q.** And the “Disease Severity Intensity” value ([4]; 15 dpi, rate N (g a.i./ha): ADF-16 100, penthiopyrad 200, metconazole 90, tebuconazole 250, control 36.0)?
**A.** 0.0 +/− 0.0b %

**Q.** And the “Disease Severity Intensity” value ([4]; 15 dpi, rate N/2.5 (g a.i./ha): ADF-16 40, penthiopyrad 80, metconazole 36, tebuconazole 100, control 36.0)?
**A.** 0.0 +/− 0.0b %

**Q.** And the “Disease Severity Intensity” value ([4]; 21 dpi, rate N (g a.i./ha): ADF-16 100, penthiopyrad 200, metconazole 90, tebuconazole 250, control 84.3)?
**A.** 0.0 +/− 0.0f^ %

**Q.** And the “Disease Severity Intensity” value ([4]; 21 dpi, rate N/2.5 (g a.i./ha): ADF-16 40, penthiopyrad 80, metconazole 36, tebuconazole 100, control 84.3)?
**A.** 0.0 +/− 0.0f^ %

**Q.** And the “Disease Severity Intensity” value ([4]; 28 dpi, rate N (g a.i./ha): ADF-16 100, penthiopyrad 200, metconazole 90, tebuconazole 250, control 95.7)?
**A.** 0.4 +/− 0.4e %

**Q.** What about the “Disease Severity Intensity” value ([4]; 28 dpi, rate N/2.5 (g a.i./ha): ADF-16 40, penthiopyrad 80, metconazole 36, tebuconazole 100, control 95.7) of the same compound?
**A.** 0.0 +/− 0.0e %

**Q.** What about the “Efficacy (from AUDPC, percentage of the untreated control)” value [4, 7] of the same compound?
**A.** 99.9%

**Q.** And the AUDPC [4, 7]?
**A.** 1.3 +/− 0.9e

**Q.** What about the “Efficacy (from AUDPC, percentage of the untreated control)” value [4, 8] of the same compound?
**A.** 100%

**Q.** And the AUDPC [4, 8]?
**A.** 0.0 +/− 0.0e

**Q.** And the “Disease Severity Intensity” value [5, 9]?
**A.** No disease

**Q.** And the “Disease Severity Intensity” value [5, 10]?
**A.** No disease

**Q.** And the “Disease Severity Intensity” value ([5]; 21 dpi, rate N (g a.i./ha): ADF-16 100, penthiopyrad 200, metconazole 90, tebuconazole 250, control 63.3)?
**A.** 0.0 +/− 0.0d %

**Q.** And the “Disease Severity Intensity” value ([5]; 21 dpi, rate N/2.5 (g a.i./ha): ADF-16 40, penthiopyrad 80, metconazole 36, tebuconazole 100, control 63.3)?
**A.** 3.2 +/− 1.1d %

**Q.** What about the “Disease Severity Intensity” value ([5]; 28 dpi, rate N (g a.i./ha): ADF-16 100, penthiopyrad 200, metconazole 90, tebuconazole 250, control 88.1) of the same compound?
**A.** 1.5 +/− 0.3g %

**Q.** What about the “Disease Severity Intensity” value ([5]; 28 dpi, rate N/2.5 (g a.i./ha): ADF-16 40, penthiopyrad 80, metconazole 36, tebuconazole 100, control 88.1) of the same compound?
**A.** 14.8 +/− 4.0e %

**Q.** And the “Efficacy (from AUDPC, percentage of the untreated control)” value [5, 7]?
**A.** 99.6%

**Q.** What about the AUDPC [5, 7] of the same compound?
**A.** 5.4 ± 1.2 days

**Q.** What about the “Efficacy (from AUDPC, percentage of the untreated control)” value [5, 8] of the same compound?
**A.** 91.9%

**Q.** What about the AUDPC [5, 8] of the same compound?
**A.** 97.2 ± 5.0 days

**Q.** What about the “Disease Severity Intensity” value [6, 9] of the same compound?
**A.** No disease

**Q.** And the “Disease Severity Intensity” value [6, 10]?
**A.** No disease

**Q.** And the “Disease Severity Intensity” value ([6]; 21 dpi, rate N (g a.i./ha): ADF-16 100, penthiopyrad 200, metconazole 90, tebuconazole 250, control 36.5)?
**A.** 0.0 +/− 0.0b %

**Q.** And the “Disease Severity Intensity” value ([6]; 21 dpi, rate N/2.5 (g a.i./ha): ADF-16 40, penthiopyrad 80, metconazole 36, tebuconazole 100, control 36.5)?
**A.** 0.0 +/− 0.0b %

**Q.** And the “Disease Severity Intensity” value ([6]; 28 dpi, rate N (g a.i./ha): ADF-16 100, penthiopyrad 200, metconazole 90, tebuconazole 250, control 77.4)?
**A.** 0.0 +/− 0.0b %

**Q.** And the “Disease Severity Intensity” value ([6]; 28 dpi, rate N/2.5 (g a.i./ha): ADF-16 40, penthiopyrad 80, metconazole 36, tebuconazole 100, control 77.4)?
**A.** 0.0 +/− 0.0b %

**Q.** What about the “Efficacy (from AUDPC, percentage of the untreated control)” value [6, 7] of the same compound?
**A.** 100%

**Q.** What about the AUDPC [6, 7] of the same compound?
**A.** 0.0 +/− 0.0b

**Q.** What about the “Efficacy (from AUDPC, percentage of the untreated control)” value [6, 8] of the same compound?
**A.** 100%

**Q.** And the AUDPC [6, 8]?
**A.** 0.0 +/− 0.0b
